# Laboratory results as given in patent publication US20240374750A1, “LINKER COMPOUND AND COMPLEX COMPOUND CONTAINING SAME” (TOHOKU UNIVERSITY, priority 2021, published 2024).
# Tests used:
# Assay type in all cases: physicochemical
# [1] = Reductive cleavage reaction with GSH in mixed system, NMR (Test Example 4); settings: ArSSrA (H)/GSH=4.4 mM/4.5 mM, 50 mM phosphate buffer
# Method: As NMR spectrum measurement conditions, GSH of the formula (13) was added to ArSSrA (H) of the formula (7) in a 50 mM phosphate buffer to adjust a solution of ArSSrA (H)/GSH=4.4 mM/4.5 mM, and the measurement by NMR was carried out. A double tube (SHIGEMI Co., Ltd., Model SP-405) was used and a TMS-containing CDCl3 solution (LOCK solvent) was placed in the outside to adjust an NMR tube.
# In the NMR measurement, the water elimination (presaturation method) measurement was performed with reference to Casi, G. et al., J. Controlled Release. 2012, 161, 121, 422 to 428, and the like.
# (Initial concentration ArSSrA (H)/GSH=4.4 mM/4.5 mM)
# [2] = Cleavage reaction under normal cell model condition, NMR (Test Example 5); settings: ArS—SrA 225 μM, GSH 450 μM (normal cell model)
# Method: ArS—SrA (H) of the formula (7) was administered to a cell model of a GSH concentration assuming a realistic intracellular drug concentration to examine the cleavage reaction of the linker compound.
# (§1) At an ArS—SrA (H) concentration (225 μM), the GSH concentration of a normal cell was approximated to 450 μM, and the same measurement was performed. To prevent a peak of the aromatic region having a low concentration from being overlapped by the peak of CHCl3 contained in CDCl3, the measurement was performed with D2O in outside the double tube. The overall compound concentration was low and the peak ratio of water was high, and thus, the number of times of integration was increased for measurement to distinguish between the peaks of the compounds and the peak of the baseline.
# [3] = Cleavage reaction under cancer cell model condition, NMR (Test Examples 6 and 9)
# Method: At a concentration of ArS—SrA (H) of the formula (7) (225 μM) assuming a realistic intracellular drug concentration, a GSH concentration of a cancer cell was approximated to 20 mM, and the same measurement was performed.
# as §1, with “To prevent” for “At an ArS—SrA (H) concentration (225 μM), the GSH concentration of a normal cell was approximated to 450 μM, and the same measurement was performed. To prevent”, “D2O in the outside the” for “D2O in outside the”
# ArSSrA (F) and ArSSrA (NO2) were subjected to the same test as in Test Example 6 to examine their cleavage reactions in the normal cell model and the cancer cell model. The results of ArSSrA (F) and ArSSrA (NO2) are shown in Table 6 and Table 7, respectively.
# [4] = Reductive cleavage reaction of F- and NO2-substituted products, NMR (Test Examples 7 and 8); settings: same conditions as in Test Example 5
# [5] = Reductive cleavage reaction with LiBH4 in THF traced by UV spectrum (Test Example 2); settings: 45 μM in THF, 11 equivalents LiBH4, absorption at 242 nm
# Method: The control of the electron density of the S atom by the substituent was expected from the above NMR results, and thus, a reductive cleavage reaction of the thiophenol-type disulfide linker was actually examined. First, a reaction of a thiophenol derivative model compound (compound of formula (2)) with a reducing agent LiBH4 in an organic solvent THF was carried out as a model reaction (formula (12)) using a UV spectrum which can be easily examined, and a pseudo-first order reaction rate was examined.
# As the THF, THF available from Wako Pure Chemical Industries, Ltd., product code 207-17765, super dehydrated, and stabilizer-free was used, and as the cell, a cell of 10 mm×10 mm was used. A reduction reaction of an oxidized form (disulfide) of the compound of the formula (2), which is an unsubstituted model compound, was carried out in the cell. The reaction was carried out using an excess amount (11 equivalents) of LiBH4 relative to the oxidized form of the compound of the formula (2) (45 μM in THF). LiBH4 was adjusted by diluting a commercially available THF 2M solution and used in the reaction.
# [6] = ArS—SrA 225 μM, GSH 20 mM (cancer cell model), 100 min.
# [7] = ArS—SrA 225 μM, GSH 20 mM (cancer cell model), 100 minutes
# [8] = ArS—SrA 225 μM, GSH 20 mM (cancer cell model), 1 day
compound,measurement,setting,value
O=C(O)c1ccccc1SSc1ccccc1C(=O)O [ArSSrA (H)],ArSH abundance ratio,[1]; 25 min.,13%
same,ArS—SG abundance ratio (1st ArS—SG column),[1]; 25 min.,3.8%
same,ArS—SG abundance ratio (2nd ArS—SG column),[1]; 25 min.,7.2%
same,ArS—SrA abundance ratio (remaining disulfide),[1]; 25 min.,83%
same,GSH abundance ratio,[1]; 25 min.,74%
same,GS—SG abundance ratio,[1]; 25 min.,19%
same,ArSH abundance ratio,[1]; 100 min.,26%
same,ArS—SG abundance ratio (1st ArS—SG column),[1]; 100 min.,11%
same,ArS—SG abundance ratio (2nd ArS—SG column),[1]; 100 min.,20%
same,ArS—SrA abundance ratio (remaining disulfide),[1]; 100 min.,62%
same,GSH abundance ratio,[1]; 100 min.,48%
same,GS—SG abundance ratio,[1]; 100 min.,32%
same,ArSH abundance ratio,[1]; 1 day,12%
same,ArS—SG abundance ratio (1st ArS—SG column),[1]; 1 day,31%
same,ArS—SG abundance ratio (2nd ArS—SG column),[1]; 1 day,57%
same,ArS—SrA abundance ratio (remaining disulfide),[1]; 1 day,57%
same,GSH abundance ratio,[1]; 1 day,11%
same,GS—SG abundance ratio,[1]; 1 day,32%
same,ArSH abundance ratio,[2]; 100 min.,8.2%
same,ArS—SG abundance ratio (1st ArS—SG column),[2]; 100 min.,2%
same,ArS—SG abundance ratio (2nd ArS—SG column),[2]; 100 min.,1.8%
same,ArS—SrA abundance ratio (remaining disulfide),[2]; 100 min.,89%
same,GSH abundance ratio,[2]; 100 min.,88%
same,GS—SG abundance ratio,[2]; 100 min.,10%
same,ArSH abundance ratio,[2]; 1 day,3.3%
same,ArS—SG abundance ratio (1st ArS—SG column),[2]; 1 day,24%
same,ArS—SG abundance ratio (2nd ArS—SG column),[2]; 1 day,21%
same,ArS—SrA abundance ratio (remaining disulfide),[2]; 1 day,84%
same,GSH abundance ratio (GSH remained),[2]; 1 day,18%
same,GSH consumed,[2]; 1 day,82%
same,GS—SG abundance ratio,[2]; 1 day,62%
same,linker disulfide cleaved,[2]; 1 day,about 16%
same,ArSH abundance ratio,[3]; [6],82%
same,ArS—SG abundance ratio (1st ArS—SG column),[3]; [6],0%
same,ArS—SG abundance ratio (2nd ArS—SG column),[3]; [6],0%
same,ArS—SrA abundance ratio (remaining disulfide),[3]; [6],19%
same,GSH abundance ratio,[3]; [6],97%
same,GS—SG abundance ratio,[3]; [6],3.4%
same,linker disulfide cleaved (dissociated),[3]; [7],82%
same,ArSH abundance ratio,[3]; [8],100%
same,ArS—SG abundance ratio (1st ArS—SG column),[3]; [8],0%
same,ArS—SG abundance ratio (2nd ArS—SG column),[3]; [8],0%
same,ArS—SrA abundance ratio (remaining disulfide),[3]; [8],0%
same,GSH abundance ratio,[3]; [8],91%
same,GS—SG abundance ratio,[3]; [8],8.8%
same,linker disulfide cleaved (dissociated),[3]; [8],100%
O=C(O)c1c(F)cccc1SSc1cccc(F)c1C(=O)O [ArSSrA (F)],ArSH abundance ratio,[3]; [6],92%
same,ArS—SG abundance ratio (1st ArS—SG column),[3]; [6],0%
same,ArS—SG abundance ratio (2nd ArS—SG column),[3]; [6],0%
same,ArS—SrA abundance ratio (remaining disulfide),[3]; [6],8%
same,GSH abundance ratio,[3]; [6],96%
same,GS—SG abundance ratio,[3]; [6],3.8%
same,linker disulfide cleaved (dissociated),[3]; [7],about 90%
same,ArSH abundance ratio,[3]; [8],100%
same,ArS—SG abundance ratio (1st ArS—SG column),[3]; [8],0%
same,ArS—SG abundance ratio (2nd ArS—SG column),[3]; [8],0%
same,ArS—SrA abundance ratio (remaining disulfide),[3]; [8],0%
same,GSH abundance ratio,[3]; [8],90%
same,GS—SG abundance ratio,[3]; [8],9.5%
same,linker disulfide cleaved (dissociated),[3]; [8],all
same,ArSH abundance ratio,[4]; 100 min.,38%
same,ArS—SG abundance ratio (1st ArS—SG column),[4]; 100 min.,20%
same,ArS—SG abundance ratio (2nd ArS—SG column),[4]; 100 min.,39%
same,ArS—SrA abundance ratio (remaining disulfide),[4]; 100 min.,42%
same,GSH abundance ratio,[4]; 100 min.,42%
same,GS—SG abundance ratio,[4]; 100 min.,9%
same,ArSH abundance ratio,[4]; 1 day,36%
same,ArS—SG abundance ratio (1st ArS—SG column),[4]; 1 day,21%
same,ArS—SG abundance ratio (2nd ArS—SG column),[4]; 1 day,41%
same,GSH abundance ratio,[4]; 1 day,8%
same,GS—SG abundance ratio,[4]; 1 day,26%
c1ccc(SSc2ccccc2)cc1 [formula (2)],pseudo first order reaction rate constant k,[5],1.97×10^−2
O=C(O)c1cc(SSc2ccc([N+](=O)[O-])c(C(=O)O)c2)ccc1[N+](=O)[O-] [ArSSrA (NO2)],ArS—SrA abundance ratio (remaining disulfide),"[3]; 100 min, 225 μM",5%
same,ArS—SrA abundance ratio (remaining disulfide),"[3]; 24 h, 225 μM",0%
same,ArSH abundance ratio,[3]; [6],95%
same,ArS—SG abundance ratio (1st ArS—SG column),[3]; [6],0%
same,ArS—SG abundance ratio (2nd ArS—SG column),[3]; [6],0%
same,GSH abundance ratio,[3]; [6],95%
same,GS—SG abundance ratio,[3]; [6],4%
same,linker disulfide cleaved (dissociated),[3]; [7],about 90%
same,ArSH abundance ratio,[3]; [8],100%
same,ArS—SG abundance ratio (1st ArS—SG column),[3]; [8],0%
same,ArS—SG abundance ratio (2nd ArS—SG column),[3]; [8],0%
same,GSH abundance ratio,[3]; [8],90%
same,GS—SG abundance ratio,[3]; [8],10%
same,linker disulfide cleaved (dissociated),[3]; [8],all
same,ArSH abundance ratio,[4]; 100 min.,51%
same,ArS—SG abundance ratio (1st ArS—SG column),[4]; 100 min.,20%
same,ArS—SG abundance ratio (2nd ArS—SG column),[4]; 100 min.,39%
same,ArS—SrA abundance ratio (remaining disulfide),[4]; 100 min.,29%
same,GSH abundance ratio,[4]; 100 min.,30%
same,GS—SG abundance ratio,[4]; 100 min.,9%
same,ArSH abundance ratio,[4]; 1 day,48%
same,ArS—SG abundance ratio (1st ArS—SG column),[4]; 1 day,22%
same,ArS—SG abundance ratio (2nd ArS—SG column),[4]; 1 day,45%
same,GSH abundance ratio,[4]; 1 day,4%
same,GS—SG abundance ratio,[4]; 1 day,26%
